# Measurements from PubChem BioAssay AID1902 (Broad Institute, 2009).
# Active and inactive are the calls of the source.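 How the source made its calls: active means EC50 no more than a set limit of log units above the highest dose; inactive means the rest.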
# Biological target: S. pyogenes SKKanGAS, kanamycin survival, BacTiterGlo, 6 h
# Test: SKKanGAS survival reduction under kanamycin, dose response, streptokinase promoter inhibitor project, SKKanGAS strain, luminescence, dose confirmation (AID 1902);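 further: lower survival reflects blocked streptokinase promoter driving kanamycin resistance gene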
row,Compound,EC50
1,CC(=O)OCC1=C(C(=O)O)N2C(=O)C(NC(=O)c3ccc(COc4cccc(Cl)c4Cl)o3)C2SC1 (configuration not stated),2.79 µM
2,CCCCCCCCCCCCC/C=C/[C@@H](O)[C@@H](N)CO,2.56 µM
3,CCC(C)c1ccc(C(C)NC(=S)NC2CCCCC2)cc1 (configuration not stated),9.12 µM
4,Oc1ccc(Br)cc1/C=N/Nc1nc(N2CCCCC2)nc(N2CCOCC2)n1,3.81 µM
5,O=c1c2c([N+](=O)[O-])cc([N+](=O)[O-])cc2sn1Cc1ccccc1,6.62 µM
6,CC(C)CN(C(=O)COc1ccc(-c2nnco2)cc1)C1CCS(=O)(=O)C1 (configuration not stated),> 15 µM (inactive)
7,S=C(NCc1ccco1)N1CCN(c2nc(-c3ccc(Cl)cc3)cs2)CC1,9.92 µM
8,CCC(C)c1ccc(C2C3=C(Nc4nc(N)[nH]c(=O)c42)c2ccccc2C3=O)cc1 (configuration not stated),3.71 µM
9,Cc1nnc(-c2ccccc2)c(=O)n1/N=C/c1c(O)ccc2ccccc12,4.37 µM
10,O=C1N/C(=N\N=C\c2cccs2)SC1Cc1ccc(Cl)c(Cl)c1 (configuration not stated),11.4 µM
11,O=C(N/N=C/c1cc([N+](=O)[O-])cc(Br)c1O)C12CC3CCC(CC(C3)C1)C2,5.07 µM
12,Cc1ccc2ccc(C(Nc3ccccn3)c3ccccc3)c(O)c2n1 (configuration not stated),0.705 µM
13,CCc1ccc(OCC(=O)NNC(=S)NC(=O)C2CCCCC2)c(Br)c1,< 0.06 µM
14,Cc1c(-c2cccc(Cl)c2)nc2ccccc2c1C(=O)OC/C(O)=C(\C#N)c1nc2ccccc2[nH]1,1.9 µM
15,Cc1cnc(NC(=O)c2cc3c(C)nn(-c4ccccc4)c3s2)s1,0.831 µM
16,CC[n+]1c(/C=C2\Sc3ccccc3N2C)ccc2cccc(C)c21,3.84 µM
17,CC(C)=CCc1c(O)c(CC=C(C)C)c2occ(-c3ccc(O)cc3)c(=O)c2c1O,1.86 µM
18,CCCCCCCn1c(=O)c(C(=O)Nc2cnccn2)c(O)c2ccccc21,2.16 µM
19,CCCCCc1ccc(OCCCC[n+]2ccccc2)c(CCCCC)c1,7.07 µM
20,O=C(CCc1ccccc1)NNC(=S)NC(=O)c1ccc(Cl)cc1,0.203 µM
21,NC1CCN(c2c(F)cc3c(=O)c(C(=O)O)cn(C4CC4)c3c2Cl)C1 (configuration not stated),0.064 µM

row,Compound,EC50
1,O=C(N/N=C/c1ccccc1O)NC12CC3CC(CC(C3)C1)C2,8.68 µM
2,COC(=O)c1ccc(/C=C/c2ccc3cccc(OC(C)=O)c3n2)cc1,1.18 µM
3,NS(=O)(=O)c1ccc(-c2ccc(/C=C3\SC(=S)N(C4CCS(=O)(=O)C4)C3=O)o2)cc1 (configuration not stated),4.95 µM
4,Cc1ccc(-c2cnc(N)n2C)cc1C,4.13 µM
5,CC(C)OC(=O)c1cccnc1N1CCN(c2cccc(Cl)c2)CC1,4.36 µM
6,CCOC(=O)c1cnc(-n2nc(C)cc2C)nc1NNc1cc(C)nc(-c2ccccc2)n1,0.237 µM
7,Cc1ccc(Oc2ccc3c(c2)C(=O)N(c2ccc(S(=O)(=O)Nc4nccs4)cc2)C3=O)cc1,3.06 µM
8,CC(C)(C)c1ccc2c(c1)OC(C(=O)N/N=C/c1ccc([N+](=O)[O-])o1)CO2 (configuration not stated),3.92 µM
9,O=C(Nc1ccccc1Sc1ccccc1)c1ccccc1F,4.53 µM
10,CCn1cc(C(=O)O)c(=O)c2cc(F)c(N3CCN(C(=S)NC(=O)c4cc(OC)cc(OC)c4)CC3)cc21,2.91 µM
11,Oc1c(Br)cc(Br)cc1Oc1ccc(Br)cc1Br,1.77 µM
12,O=C(Nc1nnc(-c2ccncc2)o1)c1ccc(Br)s1,3.27 µM
13,Oc1c(N=Nc2ccccn2)ccc2ccccc12,2.58 µM
14,CC(C)(C)c1cc(-c2csc(Nc3ccccc3)[n+]2Cc2ccc(C(=O)O)cc2)cc(C(C)(C)C)c1O,2.15 µM
15,COc1cc(-c2c(C#N)c(N)nc3c2c(C)nn3-c2ccc(C)c(C)c2)cc(OC)c1OC,4.53 µM
16,COc1ccc(Nc2ncnc3scc(-c4ccc(OC)cc4)c23)cc1,> 15 µM (inactive)
17,O=C(COc1cccc(Oc2ccccc2)c1)Nc1ccc(SC(F)F)cc1,13 µM
18,O=C(NNC(=O)c1cc(-c2ccc(Cl)c(Cl)c2)nc2ccccc12)Nc1ccccc1,4.83 µM
19,CC(C)(C)c1cc(C(=O)Nc2ccc(F)cc2)n(Cc2ccc(F)cc2)n1,3.77 µM
20,Cc1[nH]n(-c2ccccc2)c(=O)c1N=Nc1ccccc1O,0.582 µM
21,CSCc1cc(N(C)c2ccccc2)nc(-c2ccccn2)n1,0.136 µM
